In brackets after ≈: the same amount, converted by molar mass. Activity calls are given as the source filed them. The rule behind the calls is not given here.
Tests used:
Skin epidermis = assay: Reduction of trans epithelial electrical resistance in human reconstituted epidermis after 15 mins of topical exposure followed by 42 hrs of recovery; assay type: functional
[1] = system: Radical scavenging activity; assay: Antioxidant activity assessed as DPPH radical scavenging activity; assay type: functional
Homo sapiens = assay: Antiinflammatory activity against reconstituted human epidermis model assessed as inhibition of IL1-alpha release measured after 15 mins of topical exposure followed by 42 hrs of recovery by ELISA; assay type: functional; settings: Skin epidermis
[2] = Cytotoxicity against human reconstituted epidermal cells at 17.1 mM after 15 mins of topical exposure followed by 42 hrs of recovery by MTT assay; assay type: cell-based; settings: 0.25 h, 17100 µM
[3] = system: Staphylococcus epidermidis; assay: Antimicrobial activity against Staphylococcus epidermidis ATCC 12228 after 48 hrs by broth dilution method; assay type: functional; settings: ATCC 12228, 48 h
Aspergillus niger [4] = assay: Antimicrobial activity against Aspergillus niger ATCC 16404 after 24 hrs by broth dilution method; assay type: functional; settings: ATCC 16404, 24 h
Escherichia coli [5] = assay: Antimicrobial activity against Escherichia coli ATCC 8739 after 48 hrs by broth dilution method; assay type: functional, organism-based
Bacillus spizizenii [6] = assay: Antimicrobial activity against Bacillus spizizenii ATCC 6633 after 48 hrs by broth dilution method; assay type: functional; settings: ATCC 6633, 48 h
Pseudomonas aeruginosa [7] = assay: Antimicrobial activity against Pseudomonas aeruginosa ATCC 9027 after 24 hrs by broth dilution method; assay type: functional; settings: ATCC 9027, 24 h
Bacillus spizizenii [8] = assay: Antimicrobial activity against Bacillus spizizenii ATCC 6633 after 24 hrs by broth dilution method; assay type: functional
Staphylococcus aureus [9] = assay: Antimicrobial activity against Staphylococcus aureus ATCC 6538 after 24 hrs by broth dilution method; assay type: functional; settings: ATCC 6538, 24 h
Escherichia coli [10] = assay: Antimicrobial activity against Escherichia coli ATCC 8739 after 24 hrs by broth dilution method; assay type: functional, organism-based
Candida albicans [11] = assay: Antimicrobial activity against Candida albicans ATCC 10231 after 5 days by broth dilution method; assay type: functional, organism-based
Pseudomonas aeruginosa [12] = assay: Antimicrobial activity against Pseudomonas aeruginosa ATCC 9027 after 48 hrs by broth dilution method; assay type: functional; settings: ATCC 9027, 48 h
[13] = system: Staphylococcus epidermidis; assay: Antimicrobial activity against Staphylococcus epidermidis ATCC 12228 after 24 hrs by broth dilution method; assay type: functional; settings: ATCC 12228, 24 h
Aspergillus niger [14] = assay: Antimicrobial activity against Aspergillus niger ATCC 16404 after 5 days by broth dilution method; assay type: functional, organism-based
Staphylococcus aureus [15] = assay: Antimicrobial activity against Staphylococcus aureus ATCC 6538 after 48 hrs by broth dilution method; assay type: functional; settings: ATCC 6538, 48 h
Candida albicans [16] = assay: Antimicrobial activity against Candida albicans ATCC 10231 after 24 hrs by broth dilution method; assay type: functional; settings: ATCC 10231, 24 h

Q: Which Activity (Skin epidermis) does the source give for `C[C@@H]1CC[C@]2(C(=O)O)CC[C@]3(C)C(=CC[C@@H]4[C@@]5(C)C[C@@H](O)[C@H](O)[C@@](C)(COS(=O)(=O)O)[C@@H]5CC[C@]43C)[C@@H]2[C@]1(C)O` here?
A: Non-toxic

Q: And the Activity [1]?
A: inactive

Q: What about the Activity (Homo sapiens) of the same molecule?
A: Non-toxic

Q: What about the Activity [2] of the same molecule?
A: > 75%

Q: For `C[C@@H]1CC[C@]2(C(=O)O[C@@H]3O[C@H](CO)[C@@H](O)[C@H](O)[C@H]3O)CC[C@]3(C)C(=CC[C@@H]4[C@@]5(C)C[C@@H](O)[C@H](O)[C@@](C)(COS(=O)(=O)O)[C@@H]5CC[C@]43C)[C@@H]2[C@]1(C)O`, which Activity [1] is on record?
A: inactive

Q: Which EC50 [1] does the source give for `O=C(O)/C=C/c1ccc(O)c(O)c1` [CAFFEIC ACID] here?
A: 17.8 µM

Q: Which MBC [3] does the source give for `O=C(/C=C/c1ccc(O)c(O)c1)O[C@H](Cc1ccc(O)c(O)c1)C(=O)O` [ROSMARINIC ACID] here?
A: 1000 µg/mL (≈ 2.78 mM)

Q: What about the MIC (Aspergillus niger [4]) of the same molecule?
A: 4000 µg/mL (≈ 11.1 mM)

Q: And the MBC (Escherichia coli [5])?
A: inactive

Q: And the MBC (Bacillus spizizenii [6])?
A: 4000 µg/mL (≈ 11.1 mM)

Q: What about the MIC (Pseudomonas aeruginosa [7]) of the same molecule?
A: 2000 µg/mL (≈ 5.55 mM)

Q: And the MIC (Bacillus spizizenii [8])?
A: 4000 µg/mL (≈ 11.1 mM)

Q: What about the MIC (Staphylococcus aureus [9]) of the same molecule?
A: 120 µg/mL (≈ 0.333 mM)

Q: What about the EC50 [1] of the same molecule?
A: 8 µM

Q: What about the MIC (Escherichia coli [10]) of the same molecule?
A: inactive

Q: What about the MBC (Candida albicans [11]) of the same molecule?
A: inactive

Q: What about the MBC (Pseudomonas aeruginosa [12]) of the same molecule?
A: 4000 µg/mL (≈ 11.1 mM)

Q: And the MIC [13]?
A: 120 µg/mL (≈ 0.333 mM)

Q: What about the MBC (Aspergillus niger [14]) of the same molecule?
A: inactive

Q: What about the MBC (Staphylococcus aureus [15]) of the same molecule?
A: 120 µg/mL (≈ 0.333 mM)

Q: What about the MIC (Candida albicans [16]) of the same molecule?
A: 2000 µg/mL (≈ 5.55 mM)
